Source: ChEMBL document CHEMBL1148914, “Cadinane sesquiterpenes from the brown alga Dictyopteris divaricata” (J Nat Prod, 2004)

Assays:
Assay type in all cases: functional, cell-based
A549 = experiment: Cytotoxicity against human A549 cells by MTT assay
MCF7 = experiment: Cytotoxicity against human MCF7 cells by MTT assay
Bel-7402 = experiment: Cytotoxicity against human Bel7402 cells by MTT assay
HCT-8 = experiment: Cytotoxicity against human HCT8 cells by MTT assay
BGC-823 = experiment: Cytotoxicity against human BGC823 cells by MTT assay

Measured: IC50

C=C1CC[C@]2(O)[C@H]([C@H](C(C)(C)O)CC[C@H]2C)[C@H]1O
> 10 mg/L: all assays above

CC(C)[C@@H]1CC[C@@H](C)[C@]2(O)CC[C@@](C)(O)[C@@H](O)[C@@H]12
> 10 mg/L: all assays above

CC1=CC[C@@]2(O)[C@H](C)CC[C@@H](C(C)C)[C@@H]2C1=O
> 10 mg/L: all assays above

CC(C)[C@@H]1CC[C@@H](C)[C@]2(O)CCC(C=O)=C[C@@H]12
> 10 mg/L: all assays above

CC1=CC[C@]2(O)[C@@H]([C@@H]1O)[C@H](C(C)C)CC[C@H]2C
> 10 mg/L: all assays above

CC1=CC[C@]2(O)[C@@H]([C@H]1O)[C@H](C(C)C)CC[C@H]2C
> 10 mg/L: all assays above

C=C1CC[C@]2(O)[C@@H]([C@@H]1O)[C@H](C(C)C)CC[C@H]2C
> 10 mg/L: all assays above
